“Also recorded” adds a separate entry of the source.
Key:
[1] = Rubbing experiment (mechanical drug removal) with glass slide; type: physicochemical; conditions: for flutax-1 removed (washed-out) by rubbing: approx. 125 μg deposited, 1 μL DI water, 500 g weight, 60 seconds
Description: Another experiment was performed that targeted possible drug removal from CNT-fitted drug delivery platform by mechanical (e.g., rubbing) actions during its cardiovascular travel. Two types of specimens were used, a bare sheet of latex and a sheet of latex with CNTs anchored on one side. On each specimen, approximately 125 μg of flutax-1 was deposited by successively dropping small volumes of its ethanol solution and allowed to dry. Next, 1 μL of DI water followed by a microscopic 3×1×5/128-inch glass slide was put on each specimen. Finally, with a 500 g weight on top of it, the microscopic slide was moved back and forth a few millimeters at about 1 cm/sec for 60 seconds (FIG. 8). […] After the test, each of the two specimens was dropped in 2 mL of pure ethanol to see if they still had flutax-1 left on them.

[2] = Diffusion of flutax-1 from anchored CNT array; type: physicochemical
[3] = paclitaxel-eluting composite fibers, most of it over 30 days; cited from earlier work

## CC(=O)O[C@H]1C(=O)[C@@]2(C)C([C@H](OC(=O)c3ccccc3)[C@]3(O)C[C@H](OC(=O)[C@H](O)[C@@H](NC(=O)c4ccccc4)c4ccccc4)C(C)=C1C3(C)C)[C@]1(OC(C)=O)CO[C@@H]1C[C@@H]2OC(=O)[C@H](C)NC(=O)c1ccc(-c2c3ccc(=O)cc-3oc3cc(O)ccc23)c(C(=O)O)c1 (stereo partly shown) [flutax-1]
[1]; CNT-fitted latex sheet
  flutax-1 remaining after rubbing, recovered in 2 mL pure ethanol: much flutax-1 still remains; also recorded: considerably more flutax-1 released
  flutax-1 removed (washed-out) by rubbing: almost no
[1]; bare latex sheet
  flutax-1 remaining after rubbing, recovered in 2 mL pure ethanol: no more flutax-1 remains
  flutax-1 removed (washed-out) by rubbing: significant amount; also recorded: considerably higher flutax-1 removal
[2]; in DI water
  movement (diffusion) of flutax-1 molecules: did not move appreciably
[2]; in agar
  movement (diffusion) of flutax-1 molecules, time scale: in a matter of minutes

## CC(=O)O[C@H]1C(=O)[C@@]2(C)[C@H]([C@H](OC(=O)c3ccccc3)[C@]3(O)C[C@H](OC(=O)[C@H](O)[C@@H](NC(=O)c4ccccc4)c4ccccc4)C(C)=C1C3(C)C)[C@]1(OC(C)=O)CO[C@@H]1C[C@@H]2O [paclitaxel]
[3]
  drug delivered from stent: about 40%
